{"source": "patent US20240408169A1", "about": "(priority 2023, published 2024)", "key": {"[1]": {"conditions": "from (S,Z)-2-((((9H-fluoren-9-yl)methoxy)carbonyl)(methyl)amino)-9-((S)-2-((S)-2-(12-azaneyl)-N,4-dimethylpentanamido)-3-(5-chloro-2-cyclopropoxypyridin-3-yl)-N-methylpropanamido)non-4-enoic acid TFA salt; amide bond; 16-membered ring; PyBOP/HOAt/DIEA; DCM; 2.6 mM; 25.0 °C"}, "[2]": {"molecular_target": "T1, CyclinB1/CDK1 (Homo sapiens, UniProt P14635)", "T1 construct": "purchased Eurofins, discovery 14-450", "test": "Fluorescence Polarization (FP) competitive binding assay, Cyclin B1/Cdk1;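 note: fluorescence polarization read after equilibration at room temperature, with IC50 taken from serially diluted dose-response curves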", "conditions": "10 nM Cyclin B1/Cdk1, 2 nM FAM probe; average of 2-3 independent experiments; read-out: Cyclin B FP IC50"}, "[3]": {"molecular_target": "T2, CyclinA2/CDK2 (Homo sapiens, UniProt P20248)", "T2 construct": "purchased CRELUX Protein Services", "test": "Fluorescence Polarization (FP) competitive binding assay, Cyclin A2/Cdk2;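 note: plates equilibrated two hours at room temperature before polarization reading, IC50 fitted from eight-concentration compound titration curves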", "conditions": "8 nM Cyclin A2/Cdk2, 2 nM FAM probe; average of 2-3 independent experiments; read-out: Cyclin A FP IC50"}, "[4]": {"molecular_target": "T3, CyclinE1/CDK2 (Homo sapiens, UniProt P24864)", "T3 construct": "purchased Eurofins, discovery 14-475", "test": "Fluorescence Polarization (FP) competitive binding assay, Cyclin E1/Cdk2;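 note: readings taken after two-hour equilibration at room temperature in HEPES buffer with NaCl, DTT, NP-40 and BSA, IC50 fitted from eight-concentration serial dilution series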", "conditions": "10 nM Cyclin E1/Cdk2, 2 nM FAM probe; average of 2-3 independent experiments; read-out: Cyclin E FP IC50"}, "[5]": {"test_system": "NCI-H1048 cells", "test": "MTT proliferation assay, NCI-H1048;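 note: Dose-response in 96-well plates over 8 or 10 concentration points, with exposure spanning 3-4 cell doublings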", "format": "cell-based", "conditions": "5 days compound exposure, 1:3 serial dilution starting at 10 μM"}, "[6]": {"test_system": "WI-38 cells", "test": "MTT proliferation assay, WI-38;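 note: Eight- or ten-point dilution series, with exposure length chosen to span about three to four cell doublings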", "format": "cell-based", "conditions": "3 days compound exposure, 1:3 serial dilution starting at 10 μM"}, "[7]": {"test_system": "OVCAR3 cells", "test": "MTT proliferation assay, OVCAR3;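 note: compound given as an 8- or 10-point series, one day after plating, with exposure covering roughly 3-4 cell doublings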", "format": "cell-based", "conditions": "5 days compound exposure, 1:3 serial dilution starting at 10 μM"}}, "note": "Read-outs that look alike come from different tables or passages of the source. *1 amine or outer side, *2 acyl side, *3 side chain or, on linkers, in order; H or OH if unused. Where a SMILES comes first, the peptide text is derived from it. Bridges are numbered along the chain shown (N, C = ends). [ ]: non-standard residue; d: D form. The star is where a group is joined. NMePhe(2-(4-MorPh),5-Cl) = CN[C@@H](Cc1cc(Cl)ccc1-c1ccc(N2CCOCC2)cc1)C(=O)O; X63 = CC(C)N1CCN(c2ccc(-c3ccc(Cl)cc3C[C@@H](C(=O)[*:2])N(C)[*:1])cc2F)CC1; X62 = CN1CCC[C@H](c2ccc(-c3ccc(Cl)cc3C[C@@H](C(=O)[*:2])N(C)[*:1])cc2)C1; X95 = CN1CCCC[C@H]1c1ccc(-c2ccc(Cl)cc2C[C@@H](C(=O)[*:2])N(C)[*:1])cc1; NMehhhLys(Me) = CN([C@@H](CCCCCCCN(C)[*:3])C(=O)[*:2])[*:1]; cBuCO(3,3-F2-1-CF3) = O=C(C1(C(F)(F)F)CC(F)(F)C1)*; Pro(trans-4-F) = O=C(O)[C@@H]1C[C@@H](F)CN1; Nva(5-OH) = N[C@@H](CCCO)C(=O)O; Gly(cPr) = N[C@H](C(=O)O)C1CC1", "data": [{"smiles": "CC(C)C[C@@H]1NC(=O)[C@@H](N(C)C(=O)OCC2c3ccccc3-c3ccccc32)C/C=C\\CCCCN(C)C(=O)[C@H](Cc2cc(Cl)cnc2OC2CC2)N(C)C1=O", "values": [{"measurement": "ring closure, yield of all isomers", "setting": "from CC(C)C[C@H](N)C(=O)N(C)[C@@H](Cc1cc(Cl)cnc1OC1CC1)C(=O)N(C)CCCC/C=C\\C[C@@H](C(=O)O)N(C)C(=O)OCC1c2ccccc2-c2ccccc21, amide bond, PyBOP/HOAt/DIPEA, DCM, 2.57 mM, 25.0 °C", "result": 30, "unit": "%"}]}, {"smiles": "CC(C)C[C@@H]1NC(=O)[C@@H](N(C)C(=O)[C@@H](NC(=O)OC(C)(C)C)C2CC2)CC=CCCCCN(C)C(=O)[C@H](Cc2cc(F)ccc2Br)N(C)C1=O", "values": [{"measurement": "ring closure, yield of all isomers", "setting": "from C=CCCCCN(C)C(=O)[C@H](Cc1cc(F)ccc1Br)N(C)C(=O)[C@H](CC(C)C)NC(=O)[C@H](CC=C)N(C)C(=O)[C@@H](NC(=O)OC(C)(C)C)C1CC1, rcm bond, Hoveyda-Grubbs II, DCE, 6.3 mM, 70.0 °C", "result": 67, "unit": "%"}]}, {"smiles": "CCN(C(=O)OC1c2ccccc2-c2ccccc21)[C@H]1C/C=C\\CCCCN(C)C(=O)[C@H](Cc2cc(Cl)cnc2OC2CC2)N(C)C(=O)[C@H](CC(C)C)NC1=O", "values": [{"measurement": "ring closure, isolated yield", "setting": "[1]", "result": 30, "unit": "%"}]}, {"smiles": "CC(C)C[C@@H]1NC(=O)[C@@H](N(C)C(=O)[C@@H](NC(=O)[C@@H]2C[C@@H](F)CN2C(=O)C2(C(F)(F)F)CC(F)(F)C2)C2CC2)CCCCCCCN(C)C(=O)[C@H](Cc2cc(Cl)ccc2-c2ccc([C@H]3CCCN(C)C3)cc2)N(C)C1=O", "note": "[Example 412] ({cBuCO(3,3-F2-1-CF3)}-[Pro(trans-4-F)][Gly(cPr)][NMehhhLys(Me)]L[X62]; lactam 3-C)", "values": [{"measurement": "IC50", "setting": "[2]", "result": 20, "unit": "nM"}, {"measurement": "IC50", "setting": "[3]", "result": 20, "unit": "nM"}, {"measurement": "IC50", "setting": "[4]", "result": 1390, "unit": "nM"}, {"measurement": "GI50", "setting": "[5]", "result": 10, "unit": "nM"}, {"measurement": "GI50", "setting": "[6]", "result": 1060, "unit": "nM"}, {"measurement": "GI50", "setting": "[7]", "result": 10, "unit": "nM"}]}, {"smiles": "CC(C)C[C@@H]1NC(=O)[C@@H](N(C)C(=O)[C@@H](NC(=O)[C@@H]2C[C@@H](F)CN2C(=O)C2(C(F)(F)F)CC(F)(F)C2)C2CC2)CCCCCCCN(C)C(=O)[C@H](Cc2cc(Cl)ccc2-c2ccc(N3CCN(C(C)C)CC3)c(F)c2)N(C)C1=O", "note": "[Example 413] ({cBuCO(3,3-F2-1-CF3)}-[Pro(trans-4-F)][Gly(cPr)][NMehhhLys(Me)]L[X63]; lactam 3-C)", "values": [{"measurement": "IC50", "setting": "[2]", "result": 20, "unit": "nM"}, {"measurement": "IC50", "setting": "[3]", "result": 20, "unit": "nM"}, {"measurement": "IC50", "setting": "[4]", "result": 1310, "unit": "nM"}, {"measurement": "GI50", "setting": "[5]", "result": 10, "unit": "nM"}, {"measurement": "GI50", "setting": "[6]", "result": 1600, "unit": "nM"}, {"measurement": "GI50", "setting": "[7]", "result": 10, "unit": "nM"}]}, {"smiles": "COC(=O)CC[C@H](NC(=O)[C@@H]1C[C@@H](F)CN1C(=O)C1(C(F)(F)F)CC(F)(F)C1)C(=O)N(C)[C@H]1CCCCCCCN(C)C(=O)[C@H](Cc2cc(Cl)ccc2-c2ccc(N3CCOCC3)cc2)N(C)C(=O)[C@H](CC(C)C)NC1=O", "note": "[Example 415] ({cBuCO(3,3-F2-1-CF3)}-[Pro(trans-4-F)]E(OMe)[NMehhhLys(Me)]L[NMePhe(2-(4-MorPh),5-Cl)]; lactam 3-C)", "values": [{"measurement": "IC50", "setting": "[2]", "result": 20, "unit": "nM"}, {"measurement": "IC50", "setting": "[3]", "result": 20, "unit": "nM"}, {"measurement": "IC50", "setting": "[4]", "result": 300, "unit": "nM"}, {"measurement": "GI50", "setting": "[5]", "result": 10, "unit": "nM"}, {"measurement": "GI50", "setting": "[6]", "result": 14100, "unit": "nM"}, {"measurement": "GI50", "setting": "[7]", "result": 10, "unit": "nM"}]}, {"smiles": "CC(C)C[C@@H]1NC(=O)[C@@H](N(C)C(=O)[C@@H](NC(=O)[C@@H]2C[C@@H](F)CN2C(=O)C2(C(F)(F)F)CC(F)(F)C2)C2CC2)CCCCCCCN(C)C(=O)[C@H](Cc2cc(Cl)ccc2-c2ccc([C@@H]3CCCCN3C)cc2)N(C)C1=O", "note": "[Example 417] ({cBuCO(3,3-F2-1-CF3)}-[Pro(trans-4-F)][Gly(cPr)][NMehhhLys(Me)]L[X95]; lactam 3-C)", "values": [{"measurement": "IC50", "setting": "[2]", "result": 20, "unit": "nM"}, {"measurement": "IC50", "setting": "[3]", "result": 30, "unit": "nM"}, {"measurement": "IC50", "setting": "[4]", "result": 2650, "unit": "nM"}, {"measurement": "GI50", "setting": "[5]", "result": 10, "unit": "nM"}, {"measurement": "GI50", "setting": "[6]", "result": 1160, "unit": "nM"}, {"measurement": "GI50", "setting": "[7]", "result": 10, "unit": "nM"}]}, {"smiles": "CC(C)C[C@@H]1NC(=O)[C@@H](N(C)C(=O)[C@H](CCC(=O)N(C)C)NC(=O)[C@@H]2C[C@@H](F)CN2C(=O)C2(C(F)(F)F)CC(F)(F)C2)CCCCCCCN(C)C(=O)[C@H](Cc2cc(Cl)ccc2-c2ccc(N3CCOCC3)cc2)N(C)C1=O", "note": "[Example 419, (S)—N1-((3S,6S,9S)-3-((4-chloro-4′-morpholino-[1,1′-biphenyl]-2-yl)methyl)-6-isobutyl-1,4-dimethyl-2,5,8-trioxo-1,4,7-triazacyclohexadecan-9-yl)-2-((2S,4R)-1-(3,3-difluoro-1-(trifluoromethyl)cyclobutane-1-carbonyl)-4-fluoropyrrolidine-2-carboxamido)-N1,N5,N5-trimethylpentanediamide] ({cBuCO(3,3-F2-1-CF3)}-[Pro(trans-4-F)]E(NMe2)[NMehhhLys(Me)]L[NMePhe(2-(4-MorPh),5-Cl)]; lactam 3-C)", "values": [{"measurement": "IC50", "setting": "[2]", "result": 20, "unit": "nM"}, {"measurement": "IC50", "setting": "[3]", "result": 20, "unit": "nM"}, {"measurement": "IC50", "setting": "[4]", "result": 540, "unit": "nM"}, {"measurement": "GI50", "setting": "[5]", "result": 20, "unit": "nM"}, {"measurement": "GI50", "setting": "[6]", "result": 1990, "unit": "nM"}, {"measurement": "GI50", "setting": "[7]", "result": 20, "unit": "nM"}]}, {"smiles": "CC(C)C[C@@H]1NC(=O)[C@@H](N(C)C(=O)[C@H](CCC(=O)N2CCN(C)CC2)NC(=O)[C@@H]2C[C@@H](F)CN2C(=O)C2(C(F)(F)F)CC(F)(F)C2)CCCCCCCN(C)C(=O)[C@H](Cc2cc(Cl)ccc2-c2ccc(N3CCOCC3)cc2)N(C)C1=O", "note": "[Example 420]", "values": [{"measurement": "IC50", "setting": "[2]", "result": 20, "unit": "nM"}, {"measurement": "IC50", "setting": "[3]", "result": 20, "unit": "nM"}, {"measurement": "IC50", "setting": "[4]", "result": 190, "unit": "nM"}, {"measurement": "GI50", "setting": "[5]", "result": 10, "unit": "nM"}, {"measurement": "GI50", "setting": "[6]", "result": 3510, "unit": "nM"}, {"measurement": "GI50", "setting": "[7]", "result": 20, "unit": "nM"}]}, {"smiles": "CC(C)C[C@@H]1NC(=O)[C@@H](N(C)C(=O)[C@H](CCCO)NC(=O)[C@@H]2C[C@@H](F)CN2C(=O)C2(C(F)(F)F)CC(F)(F)C2)CCCCCCCN(C)C(=O)[C@H](Cc2cc(Cl)ccc2-c2ccc(N3CCOCC3)cc2)N(C)C1=O", "note": "[Example 421] ({cBuCO(3,3-F2-1-CF3)}-[Pro(trans-4-F)][Nva(5-OH)][NMehhhLys(Me)]L[NMePhe(2-(4-MorPh),5-Cl)]; lactam 3-C)", "values": [{"measurement": "IC50", "setting": "[2]", "result": 20, "unit": "nM"}, {"measurement": "IC50", "setting": "[3]", "result": 20, "unit": "nM"}, {"measurement": "IC50", "setting": "[4]", "result": 510, "unit": "nM"}, {"measurement": "GI50", "setting": "[5]", "result": 10, "unit": "nM"}, {"measurement": "GI50", "setting": "[6]", "result": 19100, "unit": "nM"}, {"measurement": "GI50", "setting": "[7]", "result": 10, "unit": "nM"}]}, {"smiles": "[2H]C([2H])([2H])N(C(=O)[C@@H](NC(=O)[C@@H]1C[C@@H](F)CN1C(=O)C1(C(F)(F)F)CC(F)(F)C1)C1CC1)[C@H]1CCCCCCCN(C)C(=O)[C@H](Cc2cc(Cl)ccc2-c2ccc(N3CCN(C)CC3)cc2)N(C)C(=O)[C@H](CC(C)C)NC1=O", "note": "[Example 422]", "values": [{"measurement": "IC50", "setting": "[2]", "result": 20, "unit": "nM"}, {"measurement": "IC50", "setting": "[3]", "result": 20, "unit": "nM"}, {"measurement": "IC50", "setting": "[4]", "result": 420, "unit": "nM"}, {"measurement": "GI50", "setting": "[5]", "result": 10, "unit": "nM"}, {"measurement": "GI50", "setting": "[6]", "result": 2360, "unit": "nM"}, {"measurement": "GI50", "setting": "[7]", "result": 10, "unit": "nM"}]}]}
